In patent US8865426B2, “Screening method using gelatinase-mediated EphA4 cleavage reaction as an indicator” (Eisai R&D Management Co., Ltd., priority 2010, dated 2014):

Experiments:
[1] = test system: gelatinase (MMP-2, MMP-9)-mediated EphA4 ectodomain cleavage reaction; test: Western blot assay of NMDA-induced EphA4 cleavage (EphA4 endodomain fragment) in hippocampal primary cultured neurons; type: cell-based, rat
Protocol: (§1) With the aim of identifying proteases which cleave off the EphA4 ectodomain in a neuronal activity-dependent manner, analysis was first performed using a specific inhibitor of gelatinase family molecules (MMP-2, MMP-9) having important functions in the brain. Neurostimulation was performed with 50 μM NMDA, and the inhibitor used was mmp-2/9 Inhibitor II ((2R)-[(4-biphenylylsulfonyl)amino]-N-hydroxy-3-phenylpropionamide, Merck). For detection of cleavage reaction, two types of antibody-based assays were used, i.e., Western blot assay using an antibody capable of recognizing the EphA4 endodomain and ELISA assay using an antibody capable of recognizing the EphA4 ectodomain.
(§2) Hippocampi were isolated from SD rats at 18 days of embryonic age (Charles River Laboratories, Inc.) and provided for culture. More specifically, fetuses were aseptically taken from pregnant rats. From these fetuses, brains were excised and soaked in 20% FBS (Hyclone)/HBSS (SIGMA). From the excised brains, hippocampi were collected under a stereoscopic microscope. […] On the other hand, the neuronal cells were collected with PBS and then quantified for their protein levels, and 10 μg aliquots were subjected to SDS-PAGE, followed by Western blotting with an anti-EphA4 antibody capable of recognizing the endodomain.

[2] = test system: gelatinase (MMP-2, MMP-9)-mediated EphA4 ectodomain cleavage reaction; test: ELISA assay of NMDA-induced EphA4 cleavage (EphA4 ectodomain in cultured solution) in hippocampal primary cultured neurons; type: cell-based, rat
Protocol: as §1, §2

Structure (SMILES) | EphA4 cleavage reaction (EphA4 endodomain fragment, Western blot) ([1]; hippocampal neuronal cells stimulated with 50 μM NMDA, 0, 1, 5, 10 or 25 μM inhibitor added, FIG. 2A) | neuronal activity-dependent EphA4 ectodomain cleavage reaction in hippocampal primary cultured neurons (summary statement) ([2]; concentration not given) | EphA4 cleavage event detected by ELISA with antibody recognizing the EphA4 ectodomain ([2]; hippocampal neuronal cells stimulated with 50 μM NMDA, 5 μM inhibitor, FIG. 2B) | induction of EphA4 cleavage reaction (EphA4 endodomain fragment detected) ([1]; hippocampal neuronal cells, 50 μM NMDA, 30 minutes, FIG. 2)
O=C(NO)[C@@H](Cc1ccccc1)NS(=O)(=O)c1ccc(-c2ccccc2)cc1 [mmp-2/9 Inhibitor II, (2R)-[(4-Biphenylylsulfonyl)amino]-N-hydroxy-3-phenylpropionamide] | inhibited in a concentration-dependent manner | completely inhibited | completely inhibited | –
CN[C@H](CC(=O)O)C(=O)O [NMDA] | – | – | – | induced
